Laboratory results: patent publication US20230117034A1, “PYRAZOLOTRIAZINES” (Bayer Aktiengesellschaft, priority 2019, published 2023)

Columns and labels:
[1] = system: BRCA1 mRNA expression in MDA-MB-231 cells; assay: qRT-PCR assay: BRCA1 mRNA expression in MDA-MB-231; format: cell-based, human; settings: Homo sapiens, MDA-MB-231, Inhibition of BRCA1 mRNA expression in MDA-MB-231 cells; median; read-out: RTqPCR-MDA-MB-231, IC50, BRCA1 (median)
Procedure, shortened: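 First, cells are plated at 200,000 per well and allowed 24 h. Second, test substances are applied continuously for a further 24 h. Finally, RNA is isolated, 600 ng is converted to cDNA, and qPCR quantifies the transcript relative to GAPDH.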

[2] = system: MDA-MB-231, human breast cancer cells; assay: Proliferation assay MDA-MB-231 (crystal violet, 4 days); format: cell-based; settings: Homo sapiens, MDA-MB-231, 96 h, MDA-MB-231 cells, median, read-out: Prolif-MDA MB-231, IC50-[mol/l] (median)
Procedure, shortened: (§1)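 Growth was measured by crystal violet staining after cells had been treated with compounds (0.01-10 µmol/L, 0.1% DMSO) for 4 days, beginning 24 h after seeding. Values were normalized to a zero-point plate and to untreated controls, and IC50 values were derived by a four-parameter fit.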

[3] = system: CAL-120, human breast adenocarcinoma cells; assay: Proliferation assay CAL-120 (crystal violet, 4 days); format: cell-based; settings: Homo sapiens, CAL-120, 96 h, CAL-120 cells, median, read-out: Prolif-CAL-120, IC50-[mol/l] (median)
Procedure, shortened: as §1

[4] = biological target: T1, CDK12 (nuclear staining in CAL-120 cells) (Homo sapiens, UniProt Q9NYV4); assay: CDK12 nuclear protein level: immunofluorescence/high content analysis (CAL-120); format: cell-based; settings: for DC50: CAL-120 cells, 24 h, immunofluorescence, 50% reduction of nuclear CDK12 staining intensity, median, read-out: CDK12 degradation IF, DC50- [mol/l] (median); for (IC50 CDK12 high ATP) to (Degradation DC50 CDK12) ratio: ratio of IC50 CDK12 high ATP kinase assay to DC50 CDK12 degradation (IF, CAL-120)
T1 construct: endogenous in cells; host or cells: CAL-120 human breast cancer cells (DSMZ ACC 459)
T1 sequence (Q9NYV4 whole entry): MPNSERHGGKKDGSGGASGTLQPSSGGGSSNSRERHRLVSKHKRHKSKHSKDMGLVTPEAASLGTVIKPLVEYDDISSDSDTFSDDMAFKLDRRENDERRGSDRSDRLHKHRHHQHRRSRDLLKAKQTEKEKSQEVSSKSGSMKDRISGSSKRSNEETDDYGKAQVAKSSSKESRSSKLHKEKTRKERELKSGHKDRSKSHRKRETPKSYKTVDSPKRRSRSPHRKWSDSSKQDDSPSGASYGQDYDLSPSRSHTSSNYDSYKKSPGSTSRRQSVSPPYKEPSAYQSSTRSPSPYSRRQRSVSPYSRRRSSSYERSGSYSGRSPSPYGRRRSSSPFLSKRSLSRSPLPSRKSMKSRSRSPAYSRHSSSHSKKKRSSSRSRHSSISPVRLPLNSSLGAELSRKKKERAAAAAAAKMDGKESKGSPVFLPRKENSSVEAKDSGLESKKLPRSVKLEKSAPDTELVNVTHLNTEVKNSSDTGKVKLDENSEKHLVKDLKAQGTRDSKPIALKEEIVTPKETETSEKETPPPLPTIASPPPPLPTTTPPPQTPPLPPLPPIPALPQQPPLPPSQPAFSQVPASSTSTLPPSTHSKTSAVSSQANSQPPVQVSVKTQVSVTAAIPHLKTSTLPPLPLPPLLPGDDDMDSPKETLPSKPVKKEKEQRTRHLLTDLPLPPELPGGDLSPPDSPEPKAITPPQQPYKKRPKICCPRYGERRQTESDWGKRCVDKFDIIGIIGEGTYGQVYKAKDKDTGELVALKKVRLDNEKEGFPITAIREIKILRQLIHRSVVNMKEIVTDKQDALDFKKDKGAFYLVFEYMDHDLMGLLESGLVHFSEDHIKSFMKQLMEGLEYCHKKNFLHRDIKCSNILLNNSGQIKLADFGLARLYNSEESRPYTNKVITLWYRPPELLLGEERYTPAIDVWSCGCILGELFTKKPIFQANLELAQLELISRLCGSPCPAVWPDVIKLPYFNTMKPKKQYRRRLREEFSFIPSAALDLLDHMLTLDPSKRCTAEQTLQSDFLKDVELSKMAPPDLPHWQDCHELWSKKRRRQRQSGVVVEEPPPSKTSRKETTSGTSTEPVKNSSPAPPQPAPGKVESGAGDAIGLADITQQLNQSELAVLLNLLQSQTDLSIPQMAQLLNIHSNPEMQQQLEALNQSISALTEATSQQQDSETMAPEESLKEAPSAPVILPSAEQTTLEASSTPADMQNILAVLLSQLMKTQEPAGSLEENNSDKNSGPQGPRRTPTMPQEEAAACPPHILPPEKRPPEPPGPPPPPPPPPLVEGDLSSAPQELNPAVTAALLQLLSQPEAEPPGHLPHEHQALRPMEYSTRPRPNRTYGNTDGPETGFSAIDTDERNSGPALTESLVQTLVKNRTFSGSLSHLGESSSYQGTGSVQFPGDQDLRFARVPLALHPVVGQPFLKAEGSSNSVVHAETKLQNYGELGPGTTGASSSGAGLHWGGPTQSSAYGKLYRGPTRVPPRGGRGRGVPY
T1 sequence (O75909 whole entry partner): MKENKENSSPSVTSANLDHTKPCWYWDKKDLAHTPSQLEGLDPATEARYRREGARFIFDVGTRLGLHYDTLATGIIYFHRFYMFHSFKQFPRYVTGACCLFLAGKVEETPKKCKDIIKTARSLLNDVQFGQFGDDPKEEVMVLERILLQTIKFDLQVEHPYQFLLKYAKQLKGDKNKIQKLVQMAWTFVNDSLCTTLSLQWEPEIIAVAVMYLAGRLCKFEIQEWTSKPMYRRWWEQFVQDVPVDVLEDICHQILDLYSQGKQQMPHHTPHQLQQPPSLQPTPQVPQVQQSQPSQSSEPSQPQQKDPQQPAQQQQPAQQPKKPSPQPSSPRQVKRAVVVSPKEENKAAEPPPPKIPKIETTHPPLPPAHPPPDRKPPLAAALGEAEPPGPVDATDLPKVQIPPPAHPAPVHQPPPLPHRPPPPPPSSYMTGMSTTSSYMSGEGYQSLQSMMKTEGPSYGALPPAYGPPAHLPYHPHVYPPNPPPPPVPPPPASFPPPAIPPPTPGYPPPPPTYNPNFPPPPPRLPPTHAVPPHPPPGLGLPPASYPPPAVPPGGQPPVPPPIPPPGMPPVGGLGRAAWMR
Procedure, shortened: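 DC50 is the degrader concentration that halves nuclear CDK12 immunofluorescence relative to controls, measured by high-content imaging. CAL-120 cells were exposed to compound for 24 h at 37 °C before PFA fixation, and signal was normalized to DMSO and control wells.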

[5] = biological target: T2, CYCLIN K (nuclear staining in CAL-120 cells) (Homo sapiens, UniProt O75909); assay: CYCLIN K nuclear protein level: immunofluorescence high content analysis (CAL-120); format: cell-based; settings: 24 h, 50% reduction of nuclear CCNK staining intensity, median, read-out: CYCLIN K degradation IF, DC50-[mol/l] (median)
T2 construct: endogenous in cells; host or cells: CAL-120 human breast cancer cells (DSMZ ACC 459)
T2 sequence (O75909 whole entry): as the sequence (O75909 whole entry partner) above
T2 sequence (Q9NYV4 whole entry partner): as the sequence (Q9NYV4 whole entry) above
Procedure, shortened: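 Readout is automated confocal image analysis of nuclear cyclin K immunofluorescence (Hoechst nuclei) after PFA fixation. Cells were CAL-120, exposed to compound dose-response 24 h at 37 °C; values are DC50 for halving nuclear CCNK signal relative to DMSO and control wells.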

## CN(CC(C)(C)O)c1nc(NCc2nc3c(F)c(F)ccc3[nH]2)n2ncc(C(F)(F)F)c2n1 [Example 402, 1-{[4-{[(4,5-difluoro-1H-benzimidazol-2-yl)methyl]amino}-8-(trifluoromethyl)pyrazolo[1,5-a][1,3,5]triazin-2-yl](methyl)amino}-2-methylpropan-2-ol]
[1]
  IC50: 3.81 nM
[2]
  IC50: 8.56 nM
[3]
  IC50: 7.85 nM
[4]
  DC50: 7.03 nM
  (IC50 CDK12 high ATP) to (Degradation DC50 CDK12) ratio: 32
[5]
  DC50: 1.78 nM

## FC(F)(F)c1cnn2c(NCc3nnc(-c4ccccc4)[nH]3)nc(N3CCOCC3)nc12 [Example 427, 2-(morpholin-4-yl)-N-[(5-phenyl-4H-1,2,4-triazol-3-yl)methyl]-8-(trifluoromethyl)pyrazolo[1,5-a][1,3,5]triazin-4-amine]
[1]
  IC50: 45 nM
[2]
  IC50: 113 nM
[3]
  IC50: 44 nM
[4]
  DC50: 14.7 nM
  (IC50 CDK12 high ATP) to (Degradation DC50 CDK12) ratio: 127
[5]
  DC50: 9.95 nM

## Fc1ccc2[nH]c(CNc3nc(N4CCOCC4)nc4c(-c5nccs5)cnn34)nc2c1F [Example 413, N-[(4,5-difluoro-1H-benzimidazol-2-yl)methyl]-2-(morpholin-4-yl)-8-(1,3-thiazol-2-yl)pyrazolo [1,5-a][1,3,5]triazin-4-amine]
[1]
  IC50: 82.7 nM
[2]
  IC50: 298 nM
[3]
  IC50: 69.9 nM
[4]
  DC50: 19.8 nM
  (IC50 CDK12 high ATP) to (Degradation DC50 CDK12) ratio: >1012
[5]
  DC50: 6.91 nM

## CN1CCN(c2nc(NCc3nc4c(F)c(F)ccc4[nH]3)n3ncc(C4CC4(F)F)c3n2)CC1 (stereo not drawn) [Example 429, N-[(4,5-difluoro-1H-benzimidazol-2-yl)methyl]-8-(2,2-difluorocyclopropyl)-2-(4-methylpiperazin-1-yl)pyrazolo[1,5-a][1,3,5]triazin-4-amine]
[1]
  IC50: 7.47 nM
[2]
  IC50: 32.4 nM
[3]
  IC50: 8.86 nM
[4]
  DC50: 4.32 nM
  (IC50 CDK12 high ATP) to (Degradation DC50 CDK12) ratio: >4626
[5]
  DC50: 3.86 nM

## Cc1cnn2c(NCc3nc4c(F)c(F)ccc4[nH]3)nc(N(C)CC(C)(C)O)nc12 [Example 395, 1-[(4-{[(4,5-difluoro-1H-benzimidazol-2-yl)methyl]amino}-8-methylpyrazolo[1,5-a][1,3,5]triazin-2-yl)(methyl)amino]-2-methylpropan-2-ol]
[1]
  IC50: 14.7 nM
[2]
  IC50: 34 nM
[3]
  IC50: 11.1 nM
[4]
  DC50: 8 nM
  (IC50 CDK12 high ATP) to (Degradation DC50 CDK12) ratio: 800
[5]
  DC50: 0.884 nM

## Fc1cccc2[nH]c(CNc3nc(N4CCN5CCC4CC5)nc4c(C(F)(F)F)cnn34)nc12 [Example 410, 2-(1,4-diazabicyclo[3.2.2]nonan-4-yl)-N-[(4-fluoro-1H-benzimidazol-2-yl)methyl]-8-(trifluoromethyl)pyrazolo[1,5-a][1,3,5]triazin-4-amine]
[1]
  IC50: 3.42 nM
[2]
  IC50: 8.27 nM
[3]
  IC50: 3.07 nM
[4]
  DC50: 1.19 nM
  (IC50 CDK12 high ATP) to (Degradation DC50 CDK12) ratio: 1336
[5]
  DC50: 0.453 nM

## CN1CCN(c2nc(NCc3nc4c(F)c(F)ccc4[nH]3)n3ncc(CC(F)(F)F)c3n2)CC1 [Example 437, N-[(4,5-difluoro-1H-benzimidazol-2-yl)methyl]-2-(4-methylpiperazin-1-yl)-8-(2,2,2-trifluoroethyl) pyrazolo[1,5-a][1,3,5]triazin-4-amine]
[1]
  IC50: 6.19 nM
[2]
  IC50: 45.8 nM
[3]
  IC50: 10.9 nM
[4]
  DC50: 1.76 nM
  (IC50 CDK12 high ATP) to (Degradation DC50 CDK12) ratio: >11369
[5]
  DC50: 2.09 nM

## COc1ccccc1-c1nnc(CNc2nc(N3CCOCC3)nc3c(Br)cnn23)[nH]1 [Example 61, 8-bromo-N-{[5-(2-methoxyphenyl)-4H-1,2,4-triazol-3-yl]methyl}-2-(morpholin-4-yl)pyrazolo[1,5-a][1,3,5]triazin-4-amine]
[1]
  IC50: 9.54 nM
[2]
  IC50: 30.8 nM
[3]
  IC50: 24.3 nM
[4]
  DC50: 5.11 nM
  (IC50 CDK12 high ATP) to (Degradation DC50 CDK12) ratio: >3913
[5]
  DC50: 3.59 nM

## Fc1ccc2[nH]c(CNc3nc(N4CCOCC4)nc4c(-c5cncs5)cnn34)nc2c1F.O=C(O)C(F)(F)F [Example 442, trifluoroacetic acid N-[(4,5-difluoro-1H-benzimidazol-2-yl)methyl]-2-(morpholin-4-yl)-8-(1,3-thiazol-5-yl)pyrazolo[1,5-a][1,3,5]triazin-4-amine]
[1]
  IC50: 0.738 nM
[2]
  IC50: 6.38 nM
[3]
  IC50: 2.61 nM
[4]
  DC50: 4.68 nM
  (IC50 CDK12 high ATP) to (Degradation DC50 CDK12) ratio: 125
[5]
  DC50: 0.385 nM

## CCc1cnn2c(NCc3nc4c(OC)cccc4[nH]3)nc(N3CCOCC3)nc12 [Example 433, 8-ethyl-N-[(4-methoxy-1H-benzimidazol-2-yl)methyl]-2-(morpholin-4-yl)pyrazolo[1,5-a][1,3,5]triazin-4-amine]
[1]
  IC50: 10.6 nM
[2]
  IC50: 40.3 nM
[3]
  IC50: 13.1 nM
[4]
  DC50: 4.32 nM
  (IC50 CDK12 high ATP) to (Degradation DC50 CDK12) ratio: 626
[5]
  DC50: 0.441 nM

## O=C(O)C(F)(F)F.c1ccc2[nH]c(CNc3nc(N4CCOCC4)nc4c(-c5cncs5)cnn34)nc2c1 [Example 441, trifluoroacetic acid-N-[(1H-benzimidazol-2-yl)methyl]-2-(morpholin-4-yl)-8-(1,3-thiazol-5-yl)pyrazolo[1,5-a][1,3,5]triazin-4-amine (1/1)]
[1]
  IC50: 3.39 nM
[2]
  IC50: 28.5 nM
[3]
  IC50: 7.69 nM
[4]
  DC50: 6.18 nM
  (IC50 CDK12 high ATP) to (Degradation DC50 CDK12) ratio: 676
[5]
  DC50: 2.25 nM

## CCc1cnn2c(NCc3nc4ccccc4[nH]3)nc(N3CCOCC3)nc12 [Example 431, N-[(1H-benzimidazol-2-yl)methyl]-8-ethyl-2-(morpholin-4-yl)pyrazolo[1,5-a][1,3,5]triazin-4-amine]
[1]
  IC50: 4.17 nM
[2]
  IC50: 28.4 nM
[3]
  IC50: 7.02 nM
[4]
  DC50: 3.39 nM
  (IC50 CDK12 high ATP) to (Degradation DC50 CDK12) ratio: 829
[5]
  DC50: 1.74 nM

## Cc1cnn2c(NCc3nc4c(F)c(F)ccc4[nH]3)nc(N3CCOCC3)nc12 [Example 392, N-[(4,5-difluoro-1H-benzimidazol-2-yl)methyl]-8-methyl-2-(morpholin-4-yl)pyrazolo[1,5-a][1,3,5]triazin-4-amine]
[1]
  IC50: 2.55 nM
[2]
  IC50: 11.1 nM
[3]
  IC50: 4.73 nM
[4]
  DC50: 6.41 nM
  (IC50 CDK12 high ATP) to (Degradation DC50 CDK12) ratio: 682
[5]
  DC50: 0.519 nM

## N#Cc1cccc(-c2c[nH]c(CNc3nc(N4CCOCC4)nc4c(Br)cnn34)n2)c1 [Example 42, 3-[2-({[8-bromo-2-(morpholin-4-yl)pyrazolo[1,5-a][1,3,5]triazin-4-yl]amino}methyl)-1H-imidazol-4-yl]benzonitrile]
[1]
  IC50: 3.4 nM
[2]
  IC50: 5.74 nM
[3]
  IC50: 1.76 nM
[4]
  DC50: 1.25 nM
  (IC50 CDK12 high ATP) to (Degradation DC50 CDK12) ratio: 324
[5]
  DC50: 0.587 nM

## CCc1cnn2c(NCc3nc4c(F)c(F)ccc4[nH]3)nc(N3CCOCC3)nc12 [Example 432, N-[(4,5-difluoro-1H-benzimidazol-2-yl)methyl]-8-ethyl-2-(morpholin-4-yl)pyrazolo[1,5-a][1,3,5]triazin-4-amine]
[1]
  IC50: 1.76 nM
[2]
  IC50: 8.53 nM
[3]
  IC50: 3.66 nM
[4]
  DC50: 0.948 nM
  (IC50 CDK12 high ATP) to (Degradation DC50 CDK12) ratio: 2425
[5]
  DC50: 0.353 nM

## FC(F)Cc1cnn2c(NCc3nc4ccccc4[nH]3)nc(N3CCOCC3)nc12.O=C(O)C(F)(F)F [Example 444, trifluoroacetic acid N-[(1H-benzimidazol-2-yl)methyl]-8-(2,2-difluoroethyl)-2-(morpholin-4-yl)pyrazolo[1,5-a][1,3,5]triazin-4-amine]
[1]
  IC50: 51.5 nM
[2]
  IC50: 69.1 nM
[3]
  IC50: 14.9 nM
[4]
  DC50: 7.88 nM
  (IC50 CDK12 high ATP) to (Degradation DC50 CDK12) ratio: 1080
[5]
  DC50: 5.91 nM

## Fc1ccc2[nH]c(CNc3nc(N4CCOCC4)nc4c(-c5ccnnc5)cnn34)nc2c1F [Example 417, N-[(4,5-difluoro-1H-benzimidazol-2-yl)methyl]-2-(morpholin-4-yl)-8-(pyridazin-4-yl)pyrazolo[1,5-a][1,3,5]triazin-4-amine]
[1]
  IC50: 14.6 nM
[2]
  IC50: 83.1 nM
[3]
  IC50: 9.17 nM
[4]
  DC50: 2.75 nM
  (IC50 CDK12 high ATP) to (Degradation DC50 CDK12) ratio: >2815
[5]
  DC50: 1.25 nM
